Experimental findings from patent US20090247520A1, “INHIBITORS OF ANTIGEN RECEPTOR-INDUCED NF-kappa B ACTIVATION” (The Burnham Institute for Medical Research, priority 2008, published 2009) are described below.

Experiment [1] has as its system PMA/Ionomycin-induced NF-κB reporter gene activity. Briefly: NF-κB luciferase reporter gene assay, PMA/Ionomycin-stimulated HEK293-NF-κB-luc cells. The experiment is classed as cell-based. From the text: The strategy for compound library screening entailed using phorbol ester (phorbol myristic acetate [PMA]) and Ca^2+-ionophore Ionomycin to achieve PKC activation, mimicking the initiating events in the antigen receptor pathway. For convenience, we used HEK293 epithelial cells, in which it has previously been shown by siRNA-mediated gene silencing and transfection of dominant-negative mutants that PMA/Ionomycin-induced NF-κB activation is dependent on CARMA1, Bcl-10, and MALT. HEK293 cells were stably transfected with a luciferase reporter gene driven by a NF-κB responsive promoter, and the responsiveness of this integrated promoter to various NF-κB inducing stimuli was confirmed, including PMA/Ionomycin and TNF. Using these cells, 96- and 384-well plate-based high throughput screening (HTS) assays were established, with good assay performance characteristics (Z′>0.5) (PubChem AID=1384). We initially screened 53,280 chemical compounds at an average concentration of 5 μM, of which 519 primary hits were obtained (based on cut-off of 50% inhibition). Of these, 248 confirmed upon repeat testing (FIG. 1).
Cell engineering. HEK293 cells were co-transfected with pUC13-4xNFκB-Luc and p-TK-puromycin-resistance plasmids. Stable clones were selected by culture in Dulbecco's Modified Eagle's Media (InVitrogen) supplemented with 10% heat-inactivated fetal bovine serum (FBS) (Hyclone), 1% v/v penicillin-streptomycin (InVitrogen) containing 1 μg/mL puromycin. Individual clones were tested for responsiveness to PMA/Ionomycin- and to TNF-induced NF-κB reporter gene activity, and a clone was selected for HTS.
HTS. NF-κB-luciferase expressing HEK293 cells were seeded at […] per well in white 96 well plates (Greiner Bio-One) in 90 μl of DMEM and incubated overnight. 10 μl of compound-containing solution was added to each well (final 1.5 μg/mL in 1% DMSO) using a liquid handler (Biomek™ FX; Beckman Coulter). After 2 h incubation, cells were stimulated using 11 μl of a PMA (final 100 ng/mL; Calbiochem) and ionomycin (final 50 ng/mL; Calbiochem) in DMEM. Cell plates were incubated for 16 h before media was removed and 40 μl of 0.5× passive lysis buffer (Promega Corp.) was added to cell plates. Plates were allowed to stand at room temperature for at least 15 minutes before adding 40 μl of 0.125× luciferin substrate (Promega Corp.) to each well. Plates were analyzed within 30 seconds with a Criterion Analyst™ using the luminescence method (0.1 second read/well).
Several compounds synthesized by the methods described herein were tested for their efficacy at inhibiting Nf-κB activation.
In general terms: A reporter such as luciferase makes a cellular process visible.

Another experiment has as its target T1, JAK2 (Homo sapiens, UniProt O60674).
T1 construct: proprietary tag (Ambit); purchased Ambit, Inc
Nature of the experiment: KINOMEscan competition binding assay, JAK2. From the text:
(§1) CID-2858522 is not a potent protein kinase inhibitor. Protein kinases play critical roles in NF-κB activation. PKCs are proximal kinases in the NF-κB pathways activated by PMA/Ionomycin and by T- and B-cell antigen receptors, while the IKKs are distal kinases operating in the terminal segments of these and other NF-κB activation pathways. We therefore tested whether CID-2858522 inhibits members of these kinase families by in vitro kinase assays. For these experiments, we tested PKC-beta and PKC-theta (the PKC family members implicated in TCR/BCR signaling), and IKK-beta (a component of the IKK complex) (FIG. 6). […] In addition to assessing these three kinases by conventional in vitro kinase assays, a kinome screen was performed using a high throughput screening method, KINOMEscan™, which is an active-site dependent competition binding assay in which human kinases of interest are fused to a proprietary tag (Ambit). The amount of kinase bound to an immobilized, active-site directed ligand is measured in the presence and absence of the test compound. […] Thus, CID-2858522 inhibits none of the protein kinases previously implicated in regulating NF-κB.
(§2) In Vitro Kinase Assays. PKC-beta, PKC-theta and IKK-beta in vitro kinase assays were performed using the HTScan Kinase Assay Kit (Cell Signaling, Danvers, Mass.) according to manufacturer's protocols. […]

Another experiment has as its target T2, TLK1 (Homo sapiens, UniProt Q9UKI8).
T2 construct: proprietary tag (Ambit); purchased Ambit, Inc
Briefly: KINOMEscan competition binding assay, TLK1.
Text: as §1, §2

Read-outs that look alike come from different tables or passages of the source.

The IC50 is the midpoint of a concentration-inhibition curve. For orientation: inhibition means the change of the read-out against control, counted positive when it falls.

T2 sequence (Q9UKI8 whole entry): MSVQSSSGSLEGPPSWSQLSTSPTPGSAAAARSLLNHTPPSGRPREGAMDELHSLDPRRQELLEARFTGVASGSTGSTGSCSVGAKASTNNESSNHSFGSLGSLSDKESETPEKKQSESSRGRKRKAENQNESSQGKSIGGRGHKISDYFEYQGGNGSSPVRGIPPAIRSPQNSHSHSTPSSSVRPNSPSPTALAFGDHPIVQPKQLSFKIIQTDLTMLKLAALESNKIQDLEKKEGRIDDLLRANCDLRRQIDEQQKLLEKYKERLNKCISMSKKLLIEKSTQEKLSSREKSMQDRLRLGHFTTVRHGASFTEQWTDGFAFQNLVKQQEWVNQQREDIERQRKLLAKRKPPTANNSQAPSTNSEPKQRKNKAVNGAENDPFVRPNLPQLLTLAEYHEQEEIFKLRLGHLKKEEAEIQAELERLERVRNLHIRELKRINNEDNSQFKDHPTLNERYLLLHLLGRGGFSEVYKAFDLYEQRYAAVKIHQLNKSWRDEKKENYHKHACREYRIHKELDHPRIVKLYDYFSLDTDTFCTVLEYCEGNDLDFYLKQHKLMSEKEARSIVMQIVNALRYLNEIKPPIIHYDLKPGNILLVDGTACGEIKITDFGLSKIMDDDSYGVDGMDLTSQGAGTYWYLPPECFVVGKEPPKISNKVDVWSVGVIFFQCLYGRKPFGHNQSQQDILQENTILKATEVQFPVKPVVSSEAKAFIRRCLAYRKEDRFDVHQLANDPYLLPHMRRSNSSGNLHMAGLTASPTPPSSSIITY
T1 sequence (O60674 whole entry): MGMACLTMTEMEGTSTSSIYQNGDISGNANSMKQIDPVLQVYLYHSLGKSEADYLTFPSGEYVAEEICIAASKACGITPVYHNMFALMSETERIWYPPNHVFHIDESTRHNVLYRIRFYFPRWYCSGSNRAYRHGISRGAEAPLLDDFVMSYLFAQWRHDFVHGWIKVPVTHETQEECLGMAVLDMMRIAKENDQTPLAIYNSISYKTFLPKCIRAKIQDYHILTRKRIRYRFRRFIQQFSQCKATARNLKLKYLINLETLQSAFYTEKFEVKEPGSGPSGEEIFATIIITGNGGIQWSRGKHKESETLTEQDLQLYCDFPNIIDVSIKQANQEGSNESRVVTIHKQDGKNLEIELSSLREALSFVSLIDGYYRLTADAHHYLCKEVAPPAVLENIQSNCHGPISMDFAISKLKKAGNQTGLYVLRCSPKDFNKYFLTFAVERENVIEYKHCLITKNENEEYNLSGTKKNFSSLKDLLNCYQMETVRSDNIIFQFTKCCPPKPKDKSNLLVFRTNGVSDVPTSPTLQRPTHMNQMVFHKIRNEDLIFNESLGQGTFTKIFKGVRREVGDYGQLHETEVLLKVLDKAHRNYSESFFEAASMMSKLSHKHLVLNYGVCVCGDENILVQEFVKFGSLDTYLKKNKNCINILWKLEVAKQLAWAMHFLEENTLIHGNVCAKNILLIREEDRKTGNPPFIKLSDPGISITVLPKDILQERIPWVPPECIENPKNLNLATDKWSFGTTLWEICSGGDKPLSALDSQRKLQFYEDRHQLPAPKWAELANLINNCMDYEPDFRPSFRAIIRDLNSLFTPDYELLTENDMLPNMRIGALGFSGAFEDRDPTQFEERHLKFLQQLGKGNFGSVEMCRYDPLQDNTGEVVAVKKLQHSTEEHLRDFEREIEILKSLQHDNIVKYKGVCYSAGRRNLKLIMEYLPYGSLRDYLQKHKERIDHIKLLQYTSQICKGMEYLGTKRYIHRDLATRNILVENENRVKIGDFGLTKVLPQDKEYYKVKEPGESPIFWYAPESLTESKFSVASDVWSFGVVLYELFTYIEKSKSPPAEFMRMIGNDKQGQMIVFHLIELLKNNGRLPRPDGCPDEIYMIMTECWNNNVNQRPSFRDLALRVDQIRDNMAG

Take `Cc1cc2nc(NCCCO)n(CC(=O)c3cc(C(C)(C)C)c(O)c(C(C)(C)C)c3)c2cc1C` [Compound 1, 2-(2-(3-Hydroxypropylamino)-5,6-dimethyl-1H-benzo[d]imidazol-1-yl)-1-(3,5-di-tert-butyl-4-hydroxyphenyl)ethanone]: the IC50 in experiment [1] (Homo sapiens, HEK293 cell line, PMA/Ionomycin, read-out: IC50, suppression of NF-κB reporter gene activity) was approximately 70 nM; in experiment [1] (Homo sapiens, PMA/Ionomycin / PKC activators, HEK293, read-out: IC50, NF-κB reporter gene assay (cellular potency)), less than 100 nM; in experiment [1] (Table II, read-out: IC50, Inhibition of antigen receptor-mediated Nf-κB), 70 nM. The “concentration at which maximum inhibition of NF-κB reporter is achieved” value in experiment [1] (PMA/Ionomycin, HEK293) is 0.25 to 0.5 µM. Further, the inhibition at 10 µM is 53% on JAK2 and 70% at TLK1.
